Assay results from patent US20210330611A1, “THERAPY FOR NEUROLOGICAL DISEASES/DISORDERS” (priority 2020, published 2021).
Counter-ions that a name gives are not always drawn. Like-named read-outs stand apart in the source and are kept apart here.

Tests used:
[1] = test system: fibrin-induced microglia activation; assay: Image-based assay of fibrin-induced microglia activation (HTS and dose response); assay type: cell-based, rat; conditions: for inhibition at 10 µM: Rattus norvegicus, Microglia, read-out: Fibrin % inhibition
[2] = test system: LPS-induced microglia activation; assay: Image-based assay of LPS-induced microglia activation (HTS and dose response); assay type: cell-based, rat; conditions: for inhibition at 10 µM: Rattus norvegicus, Microglia, read-out: LPS % inhibition
[3] = test system: fibrin- and LPS-induced microglia activation; assay: cells; assay type: cell-based, rat
primary rat microglia [4] = test system: primary rat microglia;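 on Fibrin % cell toxicity: share of dead cells sized under 150 µm2 at 10 µM in fibrin-stimulated microglia HTS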
primary rat microglia [5] = test system: primary rat microglia; remark: listed apart in the source;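 on Fibrin % cell toxicity: share of dead cells sized under 150 µm2 at 10 µM in fibrin-stimulated microglia HTS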
[6] = primary microglia HTS, 10 μM, fibrin-stimulated, cell size >800 μm^2 as marker of activation
[7] = primary microglia HTS, 10 μM, LPS-stimulated, cell size >800 μm^2 as marker of activation
[8] = HTS of 1907 compounds, quadrant by fibrin and LPS inhibition
[9] = quadrant by fibrin and LPS inhibition, HTS at 10 μM

SMILES | Quadrant (FIG. 5b) [3] | Fibrin % cell toxicity (primary rat microglia [4]; rat) [%] | LPS % cell toxicity (primary rat microglia [5]; rat) [%] | Quadrant (FIG. 5b) [3, 8] | inhibition at 10 µM [1, 6] [%] | inhibition at 10 µM [2, 7] [%] | further results
O=c1n(CCCN2CCN(c3cccc(Cl)c3)CC2)nc2ccccn12 [Trazodone] | Q4 | 0 | 0 |  |  |  | inhibition at 10 µM [1]: -10%; inhibition at 10 µM [2]: -2%
CC1=C(/C=C/C(C)=C/C=C/C(C)=C/C(=O)O)C(C)(C)CCC1 [Tretinon, Tretinoin] |  |  |  | Q4 |  |  | Fibrin % inhibition [1, 6]: 27%; LPS % inhibition [2, 7]: 34%; Fibrin % cell toxicity (primary rat microglia [4]): 1%; LPS % cell toxicity (primary rat microglia [5]): 1%
Nc1nc(N)c2nc(-c3ccccc3)c(N)nc2n1 [Triamterene] |  | 1 | 0 | Q4 | 40 | 24 | 
NCCNCCNCCN [Triethylenetetramine] | Q4 | 1 | 0 |  |  |  | inhibition at 10 µM [1]: 3%; inhibition at 10 µM [2]: 10%
O=c1[nH]c(=O)n([C@H]2C[C@H](O)[C@@H](CO)O2)cc1C(F)(F)F [Trifluridine] |  | 1 | 1 | Q4 | 10 | 16 | 
OC(CCN1CCCCC1)(c1ccccc1)C1CCCCC1 (stereo not shown) [Trihexyphenidyl] | Q4 | 1 | 1 |  |  |  | inhibition at 10 µM [1]: 5%; inhibition at 10 µM [2]: 14%
CCC(COC(=O)c1cc(OC)c(OC)c(OC)c1)(c1ccccc1)N(C)C (stereo not shown) [Trimebutine] |  | 1 | 0 | Q4 | -11 | 13 | 
COc1cc(Cc2cnc(N)nc2N)cc(OC)c1OC [Trimethoprim] | Q4 | 0 | 0 |  |  |  | inhibition at 10 µM [1]: -26%; inhibition at 10 µM [2]: 17%
C[N+](C)(C)CC(=O)O [Trimethyl Glycine] | Q4 |  |  |  |  |  | Fibrin % inhibition ([1]; 10 µM): −14%; LPS % inhibition ([2]; 10 µM): 22%; Fibrin % cell toxicity (primary rat microglia [4]): 0%; LPS % cell toxicity (primary rat microglia [5]): 0%
Cc1ccc(/C(=C\CN2CCCC2)c2ccccn2)cc1 [Triprolidine] |  | 1 | 0 | Q4 | -24 | 23 | 
NC(CO)(CO)CO [Tris] | Q4 |  |  |  |  |  | Fibrin % inhibition ([1]; 10 µM): −18%; LPS % inhibition ([2]; 10 µM): 41%; Fibrin % cell toxicity (primary rat microglia [4]): 1%; LPS % cell toxicity (primary rat microglia [5]): 1%
O=c1[nH]c(=O)n(Cl)c(=O)n1Cl [Troclosene Potassium] | Q4 | 1 | 0 |  |  |  | inhibition at 10 µM [1]: -8%; inhibition at 10 µM [2]: 1%
N[C@@H](Cc1c[nH]c2ccccc12)C(=O)O [Tryptophan] |  | 1 | 0 | Q4 | -6 | 16 | 
N[C@@H](Cc1ccc(O)cc1)C(=O)O [Tyrosine] |  | 1 | 1 | Q4 | -7 | 21 | 
CCCC(CCC)C(=O)O [Valproic Acid] |  | 0 | 0 | Q4 | -28 | 27 | 
CN[C@H](CC(C)C)C(=O)N[C@H]1C(=O)N[C@@H](CC(N)=O)C(=O)N[C@H]2C(=O)N[C@H]3C(=O)N[C@H](C(=O)N[C@H](C(=O)O)c4cc(O)cc(O)c4-c4cc3ccc4O)[C@H](O)c3ccc(c(Cl)c3)Oc3cc2cc(c3O[C@@H]2O[C@H](CO)[C@@H](O)[C@H](O)[C@H]2O[C@H]2C[C@](C)(N)[C@H](O)[C@H](C)O2)Oc2ccc(cc2Cl)[C@H]1O [Vancomycin Hydrochloride] | Q4 | 1 | 0 |  |  |  | Fibrin % inhibition ([1]; 10 µM): −20%; LPS % inhibition ([2]; 10 µM): 9%
CN[C@H](CC(C)C)C(=O)N[C@H]1C(=O)N[C@@H](CC(N)=O)C(=O)N[C@H]2C(=O)N[C@H]3C(=O)N[C@H](C(=O)N[C@H](C(=O)O)c4cc(O)cc(O)c4-c4cc3ccc4O)[C@H](O)c3ccc(c(Cl)c3)Oc3cc2cc(c3O[C@@H]2O[C@H](CO)[C@@H](O)[C@H](O)[C@H]2O[C@H]2C[C@](C)(N)[C@H](O)[C@H](C)O2)Oc2ccc(cc2Cl)[C@H]1O [Vancomycin] | Q4 | 1 | 0 |  |  |  | Fibrin % inhibition ([1]; 10 µM): −1%; LPS % inhibition ([2]; 10 µM): −2%
Clc1ccc(Nc2nnc(Cc3ccncc3)c3ccccc23)cc1 [Vatalanib] |  | 1 | 0 | Q4 | -26 | -3 | 
CC[C@]1(O)C[C@H]2CN(CCc3c([nH]c4ccccc34)[C@@](C(=O)OC)(c3cc4c(cc3OC)N(C=O)[C@H]3[C@@](O)(C(=O)OC)[C@H](OC(C)=O)[C@]5(CC)C=CCN6CC[C@]43[C@@H]65)C2)C1 [Vincristine Sulfate] |  | 16 | 7 |  |  |  | Fibrin % inhibition ([1]; primary microglia HTS, fibrin stimulation, compounds at 10 μM, 10 µM): 108%; LPS % inhibition ([2]; primary microglia HTS, LPS stimulation, compounds at 10 μM, 10 µM): 119%; Quadrant (FIG. 5b) [3, 9]: Q2
CC[C@]1(O)C[C@H]2CN(CCc3c([nH]c4ccccc34)[C@@](C(=O)OC)(c3cc4c(cc3OC)N(C=O)[C@H]3[C@@](O)(C(=O)OC)[C@H](OC(C)=O)[C@]5(CC)C=CCN6CC[C@]43[C@@H]65)C2)C1 [Vincristine] |  | 33 | 10 |  |  |  | inhibition at 10 µM ([1]; primary microglia HTS, fibrin stimulation, compounds at 10 μM): 105%; inhibition at 10 µM ([2]; primary microglia HTS, LPS stimulation, compounds at 10 μM): 104%; Quadrant (FIG. 5b) [3, 9]: Q2
